Assay results as given in paper PMC5291411, “Cytotoxic conjugates of betulinic acid and substituted triazoles prepared by Huisgen Cycloaddition from 30-azidoderivatives” (PLoS ONE, 2017).

How the values were obtained:
[1] = tested on: CCRF-CEM; experiment: Cytotoxic MTS assay, CCRF-CEM; type: cell-based; settings: Homo sapiens, 72 h, T-lymphoblastic leukemia
Description: (§1) Cytotoxic activity of all synthesized compounds was investigated in vitro against eight human cancer cell lines and two non-tumor fibroblasts using the standard MTS test (Table 1). The cancer cell lines were derived from T-lymphoblastic leukemia CCRF-CEM, leukemia K562 and their multiresistant counterparts expressing P-glycoprotein, MRP1 and LRP proteins (CEM-DNR, K562-TAX), solid tumors including lung (A549) and colon (HCT116, HCT116p53-/-) carcinomas, osteosarcoma cell line (U2OS), and for comparison, tests were performed on two human non-cancer fibroblast cell lines (BJ, MRC-5).
(§2) Biological assays were performed in concordance with our previous publications [[29], [58]; [60]; [61]]. All cells (if not indicated otherwise) were purchased from the American Tissue Culture Collection (ATCC). The CCRF-CEM line is derived from T lymphoblastic leukemia, evincing high chemosenzitivity, K562 represent cells from an acute myeloid leukemia patient sample with bcr-abl translocation, U2OS line is derived from osteosarcoma, HCT116 is colorectal tumor cell line and its p53 gene knock-down counterpart (HCT116p53-/-, Horizon Discovery Ltd, UK) is a model of human cancers with p53 mutation frequently associated with poor prognosis, A549 line is lung adenocarcinoma. The daunorubicin resistant subline of CCRF-CEM cells (CEM-DNR bulk) and paclitaxel resistant subline K562-TAX were selected in our laboratory by the cultivation of maternal cell lines in increasing concentrations of daunorubicine or paclitaxel, respectively. The CEM-DNR bulk cells overexpress MRP-1 and P-glycoprotein protein, while K562-TAX cells overexpress P-glycoprotein only. Both proteins belong to the family of ABC transporters and are involved in the primary and/or acquired multidrug resistance phenomenon. MRC-5 and BJ cell lines were used as a non-tumor control and represent human fibroblasts. The cells were maintained in nunc/corning 80 cm^2 plastic tissue culture flasks and cultured in cell culture medium according to ATCC or Horizon recommendations (DMEM/RPMI 1640 with 5 g/L glucose, 2 mM glutamine, 100 U/mL penicillin, […] streptomycin, 10% fetal calf serum, and NaHCO3).
(§3) MTS assay was performed at Institute of Molecular and Translational Medicine by robotic platform (HighResBiosolutions). Cell suspensions were prepared and diluted according to the particular cell type and the expected target cell density (25000–35000 cells/mL based on cell growth characteristics). Cells were added by automatic pipetor (30 μL) into 384 well microtiter plates. All tested compounds were dissolved in 100% DMSO and four-fold dilutions of the intended test concentration were added in 0.15 μL aliquots at time zero to the microtiter plate wells by the echoacustic non-contact liquid handler Echo550 (Labcyte). The experiments were performed in technical duplicates and three biological replicates at least. The cells were incubated with the tested compounds for 72 h at 37°C, in a 5% CO2 atmosphere at 100% humidity. At the end of the incubation period, the cells were assayed by using the MTS test. Aliquots (5 μL) of the MTS stock solution were pipetted into each well and incubated for additional 1–4 h. After this incubation period, the optical density (OD) was measured at 490 nm with an Envision reader (Perkin Elmer). Tumor cell survival (TCS) was calculated by using the following equation: TCS = (ODdrug-exposed well/mean ODcontrol wells) × 100%. The IC50 value, the drug concentration that is lethal to 50% of the tumor cells, was calculated from the appropriate dose-response curves in Dotmatics software.

[2] = tested on: CEM-DNR; experiment: Cytotoxic MTS assay, CEM-DNR; type: cell-based; settings: Homo sapiens, 72 h, daunorubicin resistant subline of CCRF-CEM
Description: as §1, §2, §3

[3] = tested on: K562; experiment: Cytotoxic MTS assay, K562; type: cell-based; settings: Homo sapiens, 72 h, leukemia
Description: as §1, §2, §3

[4] = tested on: K562-TAX; experiment: Cytotoxic MTS assay, K562-TAX; type: cell-based; settings: Homo sapiens, 72 h, paclitaxel resistant subline of K562
Description: as §1, §2, §3

[5] = tested on: A549; experiment: Cytotoxic MTS assay, A549; type: cell-based; settings: Homo sapiens, 72 h, lung adenocarcinoma
Description: as §1, §2, §3

[6] = tested on: HCT116; experiment: Cytotoxic MTS assay, HCT116; type: cell-based; settings: Homo sapiens, HCT-116, 72 h, colorectal tumor
Description: as §1, §2, §3

[7] = tested on: HCT116p53-/-; experiment: Cytotoxic MTS assay, HCT116p53-/-; type: cell-based; settings: Homo sapiens, 72 h, p53 knock-down colorectal tumor
Description: as §1, §2, §3

[8] = tested on: U2OS; experiment: Cytotoxic MTS assay, U2OS; type: cell-based; settings: Homo sapiens, 72 h, osteosarcoma
Description: as §1, §2, §3

[9] = tested on: BJ; experiment: Cytotoxic MTS assay, BJ fibroblasts; type: cell-based; settings: Homo sapiens, 72 h, non-tumor fibroblasts
Description: as §1, §2, §3

[10] = tested on: MRC-5; experiment: Cytotoxic MTS assay, MRC-5 fibroblasts; type: cell-based; settings: Homo sapiens, MRC5, 72 h, non-tumor fibroblasts
Description: as §1, §2, §3

[11] = tested on: CCRF-CEM cells; experiment: Cell cycle and apoptosis analysis (propidium iodide flow cytometry); type: cell-based, human
Procedure: (§4) Together with the treated cells, control sample containing vehicle was harvested at the same time point after 24 h. After another 24 hours, cells were then washed with cold PBS and fixed in 70% ethanol added dropwise and stored overnight at -20°C. Afterwards, cells were washed in hypotonic citrate buffer, treated with RNAse (50 μg/mL) and stained with propidium iodide. Flow cytometer using a 488 nm single beam laser (Becton Dickinson) was used for measurement. Cell cycle was analyzed in the program ModFitLT (Verity), and apoptosis was measured in logarithmic model expressing percentage of the particles with propidium content lower than cells in G0/G1 phase (<G1) of the cell cycle. Half of the sample was used for pH3^Ser10 antibody (Sigma) labeling and subsequent flow cytometry analysis of mitotic cells.

[12] = tested on: CCRF-CEM cells; experiment: pH3Ser10 antibody labeling, flow cytometry of mitotic cells; type: cell-based, human
Procedure: as §4

[13] = tested on: CCRF-CEM cells; experiment: BrDU incorporation analysis (DNA synthesis); type: cell-based, human; design: DNA synthesis: unit not given here
Procedure: as §4
For this analysis, the same procedure of cultivation as previously was used. Before harvesting, 10 μM 5-bromo-2-deoxyuridine (BrDU), was added to the cells for puls-labeling for 30 min. Cells were fixed with ice-cold 70% ethanol and stored overnight. Before the analysis, cellswere washed with PBS, and resuspended in 2 M HCl for 30 min at room temperature to denature their DNA. Following neutralization with 0.1 M Na2B4O7 (Borax), cells were washed with PBS containing 0.5% Tween-20 and 1% BSA. Staining with primary anti-BrDU antibody (Exbio) for 30 min at room temperature in the dark followed. Cells were than washed with PBS and stained with secondary antimouse-FITC antibody (Sigma). Cells were then washed with PBS again and incubated with propidium iodide (0.1 mg/mL) and RNAse A (0.5 mg/mL) for 1 h at room temperature in the dark and afterwards analyzed by flow cytometry using a 488 nm single beam laser (FACSCalibur, Becton Dickinson).

[14] = tested on: CCRF-CEM cells; experiment: BrU incorporation analysis (RNA synthesis); type: cell-based, human; design: RNA synthesis: unit not given here
Procedure: as §4
Cells were cultured and treated as above. Before harvesting, pulse-labeling with 1 mM 5-bromouridine (BrU) for 30 min followed. The cells were then fixed in 1% buffered paraformaldehyde with 0.05% of NP-40 in room temperature for 15 min, and then stored in 4°C overnight. Before measurement, they werewashed in PBS with 1% glycin, washed in PBS again, and stained by primary anti-BrDU antibody crossreacting to BrU (Exbio) for 30 min at room temperature in the dark. After another washing step in PBS cells were stained by secondary antimouse-FITC antibody (Sigma). Following the staining, cells were washed with PBS and fixed with 1% PBS buffered paraformaldehyde with 0.05% of NP-40 for 1 hour. Cells were washed by PBS, incubated with propidium iodide (0.1 mg/mL) and RNAse A (0.5 mg/mL) for 1 h at room temperature in the dark, and finally analyzed by flow cytometry using a 488 nm single beam laser (FACS Calibur, Becton Dickinson).

SMILES | IC50 [1] [µM] | IC50 [2] [µM] | IC50 [3] [µM] | IC50 [4] [µM] | IC50 [5] [µM] | IC50 [6] [µM] | IC50 [7] [µM] | IC50 [8] [µM] | IC50 [9] [µM] | IC50 [10] [µM] | G0/G1 (%) ([11]; 1 × IC50) | G2/M (%) ([11]; 1 × IC50) | S (%) ([11]; 1 × IC50) | G0/G1 (%) ([11]; 5 × IC50) | G2/M (%) ([11]; 5 × IC50) | S (%) ([11]; 5 × IC50) | Sub G1 (%) ([11]; 5 × IC50) | pH3Ser10 (%) ([12]; 1 × IC50) | pH3Ser10 (%) ([12]; 5 × IC50) | effect on DNA synthesis (in words) [13] | also measured
C=C(CN=[N+]=[N-])[C@@H]1CC[C@]2(C(=O)O)CC[C@]3(C)C(CCC4[C@@]5(C)CC[C@H](OC(C)=O)C(C)(C)C5CC[C@]43C)C12 (stereo partly drawn) [Compound 6, 3β-O-Acetyl-30-azidobetulinic acid] | 7.4 | 19.2 | 12.3 | 15.5 | 17.6 | 18.6 | 19.7 | 20.9 | 26.7 | 20 | 49.3 | 20.3 | 30.4 | 41.4 | 23.8 | 34.8 | 70.0 | 1.80 | 2.68 | inhibiting | Sub G1 (%) ([11]; 1 × IC50): 10.7%; DNA synthesis ([13]; 1 × IC50, BrDU incorporation): 33.0; DNA synthesis ([13]; 5 × IC50, BrDU incorporation): 1.00; effect on RNA synthesis (in words) [14]: inhibiting; RNA synthesis ([14]; 1 × IC50, BrU incorporation): 14.1; RNA synthesis ([14]; 5 × IC50, BrU incorporation): 1.70
C=C(Cn1cc(-c2ccccc2C=O)nn1)[C@@H]1CC[C@]2(C(=O)O)CC[C@]3(C)C(CCC4[C@@]5(C)CC[C@H](O)C(C)(C)C5CC[C@]43C)C12 (stereo partly shown) [Compound 11b] | 8.5 | 11.5 | > 50 | 13.7 | > 50 | 26.3 | 26.9 | > 50 | > 50 | > 50 | 59.0 | 15.7 | 25.3 | 45.5 | 19.1 | 35.4 | 65.6 | 0.88 | 1.19 | inhibiting | DNA synthesis ([13]; 1 × IC50, BrDU incorporation): 20.0; DNA synthesis ([13]; 5 × IC50, BrDU incorporation): 6.40; effect on RNA synthesis (in words) [14]: inhibiting; RNA synthesis ([14]; 1 × IC50, BrU incorporation): 48.3; RNA synthesis ([14]; 5 × IC50, BrU incorporation): 38.1
C=C(Cn1cc(-c2ccccn2)nn1)[C@@H]1CC[C@]2(C(=O)O)CC[C@]3(C)C(CCC4[C@@]5(C)CC[C@H](OC(C)=O)C(C)(C)C5CC[C@]43C)C12 (stereo partly shown) [Compound 9c] | 9 | 14.4 | 22.1 | 13.8 | 13.2 | 30.3 | 13.7 | 16 | 29.5 | 27.6 | 48.9 | 20.3 | 30.9 | 40.5 | 21.0 | 38.5 | 65.6 | 1.47 | 0.89 | inhibiting | Sub G1 (%) ([11]; 1 × IC50): 7.2%; DNA synthesis ([13]; 1 × IC50, BrDU incorporation): 20.3; DNA synthesis ([13]; 5 × IC50, BrDU incorporation): 2.90; effect on RNA synthesis (in words) [14]: inhibiting; RNA synthesis ([14]; 1 × IC50, BrU incorporation): 25.4; RNA synthesis ([14]; 5 × IC50, BrU incorporation): 0.40
C=C(CBr)[C@@H]1CC[C@]2(C(=O)O)CC[C@]3(C)C(CCC4[C@@]5(C)CC[C@H](OC(C)=O)C(C)(C)C5CC[C@]43C)C12 (stereo partly drawn) [Compound 4, 3β-O-Acetyl-30-bromobetulinic acid] | 5.7 | 15.3 | 21.7 | 15.8 | 13.2 | 15.9 | 14.1 | 21.2 | 31.7 | 24.2 | 47.3 | 16.8 | 35.9 | 33.7 | 23.2 | 43.0 | 39.7 | 1.34 | 2.35 | inhibiting | Sub G1 (%) ([11]; 1 × IC50): 9.4%; DNA synthesis ([13]; 1 × IC50, BrDU incorporation): 38.6; DNA synthesis ([13]; 5 × IC50, BrDU incorporation): 5.80; effect on RNA synthesis (in words) [14]: inhibiting; RNA synthesis ([14]; 1 × IC50, BrU incorporation): 56.3; RNA synthesis ([14]; 5 × IC50, BrU incorporation): 24.8
C=C(Cn1cc(-c2ccccc2C=O)nn1)[C@@H]1CC[C@]2(C(=O)O)CC[C@]3(C)C(CCC4[C@@]5(C)CC[C@H](OC(C)=O)C(C)(C)C5CC[C@]43C)C12 (stereo partly shown) [Compound 9b] | 3.3 | 4 | 3.6 | 3.9 | 14.8 | 6.4 | 9.5 | 12.8 | 31.3 | 28.9 | 58.6 | 19.5 | 21.9 | 35.7 | 18.1 | 46.2 | 51.9 | 1.19 | 0.37 | inhibiting | inhibition of the cell cycle in G0/G1 (in words) [11]: highest accumulation; Sub G1 (%) ([11]; 1 × IC50): 10.8%; DNA synthesis ([13]; 1 × IC50, BrDU incorporation): 22.6; DNA synthesis ([13]; 5 × IC50, BrDU incorporation): 0.55; effect on RNA synthesis (in words) [14]: inhibiting; RNA synthesis ([14]; 1 × IC50, BrU incorporation): 15.8; RNA synthesis ([14]; 5 × IC50, BrU incorporation): 0.08
